Experimental data: US12129246B1, “Hydroquinazoline derivatives for the treatment of a disease or disorder” (Novartis AG, priority 2023, dated 2024)
Like-named read-outs stand apart in the source and are kept apart here.

Tests used:
monkey NPR1 = monkey NPR1 (Macaca fascicularis, UniProt A0A7N9DBT9); experiment: Cellular cGMP production assay, monkey NPR1 expressing CHO-K1 cells (CisBio HTRF); format: cell-based; settings: for Monkey NPR1 Amax (% of ANP): maximum cGMP production as percentage of the maximum cGMP produced with ANP
Chain of monkey NPR1 (A0A7N9DBT9 entry or part of it): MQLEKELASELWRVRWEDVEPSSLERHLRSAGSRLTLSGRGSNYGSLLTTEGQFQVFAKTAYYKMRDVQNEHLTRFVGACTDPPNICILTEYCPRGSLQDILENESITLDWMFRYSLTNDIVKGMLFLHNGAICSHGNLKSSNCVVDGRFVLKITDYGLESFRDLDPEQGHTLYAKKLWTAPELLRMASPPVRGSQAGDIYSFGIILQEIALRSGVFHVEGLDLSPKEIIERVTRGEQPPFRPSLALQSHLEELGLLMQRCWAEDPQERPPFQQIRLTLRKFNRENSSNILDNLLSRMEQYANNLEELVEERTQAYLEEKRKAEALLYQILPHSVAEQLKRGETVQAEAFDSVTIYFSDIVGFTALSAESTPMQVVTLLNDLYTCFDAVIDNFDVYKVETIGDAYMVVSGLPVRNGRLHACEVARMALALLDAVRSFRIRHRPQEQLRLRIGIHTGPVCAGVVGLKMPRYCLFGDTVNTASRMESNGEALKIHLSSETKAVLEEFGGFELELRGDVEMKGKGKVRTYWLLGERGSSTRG
Summary of the method: (§1)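 Step 1: add buffer (PBS, 0.1% BSA, 1 mM IBMX) and compounds, 3-fold series from 30 μM top. Step 2: incubate 30 min, 37 °C. Step 3: lyse; HTRF reagents 1 h at RT.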

human NPR1 = biological target: T1, human NPR1 (Homo sapiens, UniProt P16066); experiment: Cellular cGMP production assay, human NPR1 expressing CHO-K1 cells (CisBio HTRF); format: cell-based; settings: for AC50: cGMP production, 30 min at 37° C., 12-point dose-response from 30 μM; for Human NPR1 Amax (% of ANP): maximum cGMP production as percentage of the maximum cGMP produced with ANP
T1 construct: host or cells: CHO-K1
T1 sequence (P16066 33-1061): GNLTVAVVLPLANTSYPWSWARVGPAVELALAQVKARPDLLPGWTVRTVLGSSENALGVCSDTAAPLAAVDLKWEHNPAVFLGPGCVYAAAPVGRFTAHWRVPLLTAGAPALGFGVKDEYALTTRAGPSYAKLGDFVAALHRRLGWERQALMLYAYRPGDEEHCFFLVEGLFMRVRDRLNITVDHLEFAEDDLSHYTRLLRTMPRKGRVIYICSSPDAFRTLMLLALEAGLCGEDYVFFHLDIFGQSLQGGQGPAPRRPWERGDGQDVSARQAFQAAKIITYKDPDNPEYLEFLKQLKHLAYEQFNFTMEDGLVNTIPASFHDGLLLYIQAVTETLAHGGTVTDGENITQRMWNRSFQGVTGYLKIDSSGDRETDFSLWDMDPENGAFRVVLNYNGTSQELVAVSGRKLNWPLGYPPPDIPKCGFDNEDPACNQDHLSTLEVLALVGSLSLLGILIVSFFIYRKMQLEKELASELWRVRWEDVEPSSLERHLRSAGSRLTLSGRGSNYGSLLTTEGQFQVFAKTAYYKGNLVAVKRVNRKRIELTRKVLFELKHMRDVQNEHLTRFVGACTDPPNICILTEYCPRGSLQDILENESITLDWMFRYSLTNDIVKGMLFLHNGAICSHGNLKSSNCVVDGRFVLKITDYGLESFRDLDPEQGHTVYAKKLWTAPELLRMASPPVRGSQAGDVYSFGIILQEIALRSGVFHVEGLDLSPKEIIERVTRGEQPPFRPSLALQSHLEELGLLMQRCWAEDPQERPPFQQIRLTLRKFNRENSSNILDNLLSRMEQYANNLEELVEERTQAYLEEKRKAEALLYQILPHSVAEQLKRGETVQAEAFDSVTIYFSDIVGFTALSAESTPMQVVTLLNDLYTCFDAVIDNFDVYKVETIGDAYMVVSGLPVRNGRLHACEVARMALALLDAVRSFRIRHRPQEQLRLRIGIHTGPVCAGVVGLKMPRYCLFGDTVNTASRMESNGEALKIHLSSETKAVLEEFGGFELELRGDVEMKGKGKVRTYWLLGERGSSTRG
Summary of the method: as §1

[1] = cGMP production, monkey NPR1 CHO-K1 cells, 30 min at 37° C., 12-point dose-response from 30 μM, read-out: Monkey NPR1 AC50

CC[C@H]([C@H]1CC[C@H](C(=O)O)CC1)N(C)c1nc2c(c(N[C@@H](CN3CCCCC3)c3cnn(CC)c3)n1)C[C@H](c1cccc(F)c1)CC2 [Compound 91, (1R,4r)-4-((R)-1-(((R)-4-(((R)-1-(1-ethyl-1H-pyrazol-4-yl)-2-(piperidin-1-yl)ethyl)amino)-6-(3-fluorophenyl)-5,6,7,8-tetrahydroquinazolin-2-yl)(methyl)amino)propyl)cyclohexane-1-carboxylic acid]
AC50 (monkey NPR1; [1]): 184 nM | Monkey NPR1 Amax (% of ANP) (monkey NPR1; monkey NPR1 CHO-K1 cells): 102.129 % of ANP | AC50 (human NPR1): 315 nM | Human NPR1 Amax (% of ANP) (human NPR1): 98.135 % of ANP

CC[C@H]([C@H]1CC[C@H](C(=O)O)CC1)N(C)c1nc2c(c(N[C@@H](CN3CCCCC3)c3cnn(C4CC4)c3)n1)C[C@H](c1ccccc1)CC2 [Compound 97, (1R,4r)-4-((R)-1-(((R)-4-(((R)-1-(1-cyclopropyl-1H-pyrazol-4-yl)-2-(piperidin-1-yl)ethyl)amino)-6-phenyl-5,6,7,8-tetrahydroquinazolin-2-yl)(methyl)amino)propyl)cyclohexane-1-carboxylic acid]
AC50 (monkey NPR1; [1]): 192 nM | Monkey NPR1 Amax (% of ANP) (monkey NPR1; monkey NPR1 CHO-K1 cells): 96.148 % of ANP | AC50 (human NPR1): 338 nM | Human NPR1 Amax (% of ANP) (human NPR1): 107.286 % of ANP

CC[C@@H](Nc1nc2c(c(N[C@@H](CN3CCC[C@H](C)C3)c3cnn(C(C)C)c3)n1)C[C@H](c1ccccc1)CC2)[C@H]1CC[C@H](C(=O)O)CC1 [Compound 22, (1R,4r)-4-((R)-1-(((R)-4-(((R)-1-(1-isopropyl-1H-pyrazol-4-yl)-2-((S)-3-methylpiperidin-1-yl)ethyl)amino)-6-phenyl-5,6,7,8-tetrahydroquinazolin-2-yl)amino)propyl)cyclohexane-1-carboxylic acid]
AC50 (monkey NPR1; [1]): 74 nM | Monkey NPR1 Amax (% of ANP) (monkey NPR1; monkey NPR1 CHO-K1 cells): 103.742 % of ANP | AC50 (human NPR1): 114 nM | Human NPR1 Amax (% of ANP) (human NPR1): 102.676 % of ANP

CC[C@@H](Nc1nc2c(c(N[C@@H](CN3CCCC4(CCC4)C3)c3cnn(CC)c3)n1)C[C@H](c1ccccc1)CC2)[C@H]1CC[C@H](C(=O)O)CC1 [Compound 126, (1R,4r)-4-((R)-1-(((R)-4-(((R)-1-(1-ethyl-1H-pyrazol-4-yl)-2-(6-azaspiro[3.5]nonan-6-yl)ethyl)amino)-6-phenyl-5,6,7,8-tetrahydroquinazolin-2-yl)amino)propyl)cyclohexane-1-carboxylic acid]
AC50 (monkey NPR1; [1]): 452 nM | Monkey NPR1 Amax (% of ANP) (monkey NPR1; monkey NPR1 CHO-K1 cells): 102.477 % of ANP | AC50 (human NPR1): 620 nM | Human NPR1 Amax (% of ANP) (human NPR1): 98.906 % of ANP

CC[C@@H](Nc1nc2c(c(N[C@@H](CN3CCCC3)c3ccccc3)n1)CN(c1ccccc1)CC2)[C@H]1CC[C@H](C(=O)O)CC1 [Compound 131, (1R,4r)-4-((R)-1-((6-phenyl-4-(((R)-1-phenyl-2-(pyrrolidin-1-yl)ethyl)amino)-5,6,7,8-tetrahydropyrido[4,3-d]pyrimidin-2-yl)amino)propyl)cyclohexane-1-carboxylic acid]
AC50 (monkey NPR1; [1]): 582 nM | Monkey NPR1 Amax (% of ANP) (monkey NPR1; monkey NPR1 CHO-K1 cells): 109.531 % of ANP | AC50 (human NPR1): 693 nM | Human NPR1 Amax (% of ANP) (human NPR1): 101.666 % of ANP

CC[C@@H](Nc1nc2c(c(N[C@H](CN3CCC[C@H](C)C3)c3cnn(C)c3)n1)C[C@](C)(c1cccc(F)c1)CC2)[C@H]1CC[C@H](C(=O)O)CC1 (stereo in doubt) [Compound 130, (1S,4r)-4-((S)-1-(((S)-6-(3-fluorophenyl)-6-methyl-4-(((R)-1-(1-methyl-1H-pyrazol-4-yl)-2-((R)-3-methylpiperidin-1-yl)ethyl)amino)-5,6,7,8-tetrahydroquinazolin-2-yl)amino)propyl)cyclohexane-1-carboxylic acid]
AC50 (monkey NPR1; [1]): 205 nM | Monkey NPR1 Amax (% of ANP) (monkey NPR1; monkey NPR1 CHO-K1 cells): 114.798 % of ANP | AC50 (human NPR1): 671 nM | Human NPR1 Amax (% of ANP) (human NPR1): 88.663 % of ANP

CC[C@H]([C@H]1CC[C@H](C(=O)O)CC1)N(C)c1nc2c(c(N[C@@H](CN3CC4CCC3C4)c3cnn(C)c3)n1)C[C@H](c1ccccc1)CC2 (stereo partly drawn) [Compound 128, (1R,4r)-4-((1R)-1-(((6R)-4-(((1R)-2-(2-azabicyclo[2.2.1]heptan-2-yl)-1-(1-methyl-1H-pyrazol-4-yl)ethyl)amino)-6-phenyl-5,6,7,8-tetrahydroquinazolin-2-yl)(methyl)amino)propyl)cyclohexane-1-carboxylic acid]
AC50 (monkey NPR1; [1]): 416 nM | Monkey NPR1 Amax (% of ANP) (monkey NPR1; monkey NPR1 CHO-K1 cells): 95.117 % of ANP | AC50 (human NPR1): 629 nM | Human NPR1 Amax (% of ANP) (human NPR1): 105.430 % of ANP

CC[C@@H](Nc1nc2c(c(N[C@@H](CN3CCCCCC3)c3cnn(C)c3)n1)C[C@H](c1ccccc1)CC2)[C@H]1CC[C@H](C(=O)O)CC1 [Compound 51, (1R,4r)-4-((R)-1-(((R)-4-(((R)-2-(azepan-1-yl)-1-(1-methyl-1H-pyrazol-4-yl)ethyl)amino)-6-phenyl-5,6,7,8-tetrahydroquinazolin-2-yl)amino)propyl)cyclohexane-1-carboxylic acid]
AC50 (monkey NPR1; [1]): 110 nM | Monkey NPR1 Amax (% of ANP) (monkey NPR1; monkey NPR1 CHO-K1 cells): 104.734 % of ANP | AC50 (human NPR1): 187 nM | Human NPR1 Amax (% of ANP) (human NPR1): 106.105 % of ANP

CC[C@H]([C@H]1CC[C@H](C(=O)O)CC1)N(C)c1nc2c(c(N[C@@H](CN3CCCCC3)c3cnn(C)c3)n1)C[C@H](c1ccccc1)CC2 [Compound 118, (1R,4r)-4-((R)-1-(methyl((R)-4-(((R)-1-(1-methyl-1H-pyrazol-4-yl)-2-(piperidin-1-yl)ethyl)amino)-6-phenyl-5,6,7,8-tetrahydroquinazolin-2-yl)amino)propyl)cyclohexane-1-carboxylic acid]
AC50 (monkey NPR1; [1]): 400 nM | Monkey NPR1 Amax (% of ANP) (monkey NPR1; monkey NPR1 CHO-K1 cells): 99.466 % of ANP | AC50 (human NPR1): 540 nM | Human NPR1 Amax (% of ANP) (human NPR1): 94.446 % of ANP

CC[C@@H](Nc1nc2c(c(N[C@@H](CN3CCCC[C@H]3C)c3cnn(C)c3)n1)C[C@H](c1ccccc1)CC2)[C@H]1CC[C@H](C(=O)O)CC1 [Compound 90, (1R,4r)-4-((R)-1-(((R)-4-(((R)-1-(1-methyl-1H-pyrazol-4-yl)-2-((R)-2-methylpiperidin-1-yl)ethyl)amino)-6-phenyl-5,6,7,8-tetrahydroquinazolin-2-yl)amino)propyl)cyclohexane-1-carboxylic acid]
AC50 (monkey NPR1; [1]): 224 nM | Monkey NPR1 Amax (% of ANP) (monkey NPR1; monkey NPR1 CHO-K1 cells): 106.347 % of ANP | AC50 (human NPR1): 313 nM | Human NPR1 Amax (% of ANP) (human NPR1): 103.308 % of ANP

CC[C@@H](N(C)c1nc2c(c(N[C@@H](CN3C4CCCC3CC4)c3cnn(C)c3)n1)C[C@H](c1ccc(F)cc1)CC2)C12CC(C(=O)O)(C1)C2 [Compound 25, 3-((1R)-1-(((6R)-4-(((1R)-2-(8-azabicyclo[3.2.1]octan-8-yl)-1-(1-methyl-1H-pyrazol-4-yl)ethyl)amino)-6-(4-fluorophenyl)-5,6,7,8-tetrahydroquinazolin-2-yl)(methyl)amino)propyl)bicyclo[1.1.1]pentane-1-carboxylic acid]
AC50 (monkey NPR1): 108 nM | Monkey NPR1 Amax (% of ANP) (monkey NPR1; monkey NPR1 CHO-K1 cells): 106.072 % of ANP | AC50 (human NPR1): 126 nM | Human NPR1 Amax (% of ANP) (human NPR1): 102.816 % of ANP

CC[C@H]([C@H]1CC[C@H](C(=O)O)CC1)N(C)c1nc2c(c(N[C@@H](CN3C4CC5CC(C4)CC3C5)c3cnn(C)c3)n1)C[C@H](c1ccccc1)CC2 [Compound 98, (1R,4r)-4-((R)-1-(((R)-4-(((R)-2-((1R,3R,5R,7R)-2-azaadamantan-2-yl)-1-(1-methyl-1H-pyrazol-4-yl)ethyl)amino)-6-phenyl-5,6,7,8-tetrahydroquinazolin-2-yl)(methyl)amino)propyl)cyclohexane-1-carboxylic acid]
AC50 (monkey NPR1; [1]): 179 nM | Monkey NPR1 Amax (% of ANP) (monkey NPR1; monkey NPR1 CHO-K1 cells): 105.533 % of ANP | AC50 (human NPR1): 346 nM | Human NPR1 Amax (% of ANP) (human NPR1): 100.756 % of ANP

CC[C@H]([C@H]1CC[C@](F)(C(=O)O)CC1)N(C)c1nc2c(c(N[C@H](CN3CCC[C@H](C)C3)c3cnn(C)c3)n1)C[C@H](c1ccccc1)CC2 [Compound 82, (1S,4s)-1-fluoro-4-((R)-1-(methyl((R)-4-(((S)-1-(1-methyl-1H-pyrazol-4-yl)-2-((S)-3-methylpiperidin-1-yl)ethyl)amino)-6-phenyl-5,6,7,8-tetrahydroquinazolin-2-yl)amino)propyl)cyclohexane-1-carboxylic acid]
AC50 (monkey NPR1; [1]): 278 nM | Monkey NPR1 Amax (% of ANP) (monkey NPR1; monkey NPR1 CHO-K1 cells): 106.556 % of ANP | AC50 (human NPR1): 272 nM | Human NPR1 Amax (% of ANP) (human NPR1): 96.493 % of ANP
